Data from patent US9138659B2, “Compositions, methods, and systems relating to controlled crystallization and/or nucleation of molecular species” (Massachusetts Institute of Technology, priority 2010, dated 2015).
≈ marks a conversion by molar mass, not a printed value. Entries after “also recorded” stand apart in the source; their conditions may differ.

How the values were obtained:
[1] = CBZ anhydrous forms; ambient conditions; cited from earlier work
[2] = Partition coefficients of CBZ and ROY in PEGMDA microgels from ethanol solutions; type: physicochemical; conditions: ethanol solution
[3] = CBZ nucleation induction time and polymorphic outcome with PEGMDA microgels in ethanol; type: physicochemical
From the text: Results and Discussion: Monodispersed cubelike PEGMDA microgels (FIG. 27 left), with M ranging from 130 to 700 g/mol were synthesized by Stop-Flow Lithography, The mesh sizes vary from 0.7 to 1.5 nm in solvent ethanol (Table 9), estimated from equilibrium swelling by the Flory-Rehner theory. The accuracy of this method for obtaining mesh sizes has been confirmed with Small-Angle Neutron Scattering in a different solvent. The microgels were utilized for controlling polymorph crystallization by suspending ˜10 μg of microgels per 1 ml solution by stiffing. Such a low microgel concentration may be sufficient to effect drastic change in the crystallization behavior (discussed later), underscoring the effectiveness of polymer microgels in controlling crystallization. In all crystallization experiments, supersaturation of the solution was generated by cooling instead of solvent evaporation, despite its popularity in numerous polymorph studies, to yield better control over the crystallization process.
Occasionally, pure Form III was also obtained from bulk experiments. […] However, such polymorph selectivity could not be attained using microgels with M<400 g/mol (˜100 trials) where the polymorphic outcome was quite similar to that of the bulk samples (Table 9), only with a decreased mass fraction of Form I in the mixture obtained (FIG. 28 discussed later) and a lower frequency of occurrence of Form III.
Average mesh size ξ was estimated from equilibrium swelling experiments in solvent ethanol. Induction time distribution data were fitted with stretched exponentials via nonlinear least square regression: P=exp[−(t/τ)^β], where P is the probability to observe no crystallization event within time t.
Induction time was measured by monitoring IR transmission signal passing through a solution in controlled temperature environment and stirring condition. Once nucleation occurred, the solution became turbid in seconds indicated by a sharp drop of IR signal, due to secondary nucleation and rapid crystal growth. The statistical nature of nucleation necessitated a large number of experiments (50-100) for obtaining the distribution of induction times, from which the average induction time τ was regressed with a stretched-exponential model, P(t)=exp[−(t/τ)^β], where P is the probability to observe no crystallization event within time t. In brief, the stretched-exponential model modified the single exponential model derived from the Poisson statistics, P(t)=exp (−t/τ) by adding an exponent β to the dimensionless induction time t/τ to capture the spread in characteristic time scales caused by a distribution of nucleation active sites present in the system.

[4] = Equilibrium partitioning of ASA / ACM into PEGDA and PEGDA-co-AM gels; type: physicochemical; conditions: for increase in κ with modified gels: ACM
Procedure: This theory is exemplified by quantifying the partitioning of aspirin between the PEGDA gel phase and 38/62 ethanol/water (v/v), and determining the concentration of aspirin in the hydrogel particles. The partitioning experiments were performed at the same solution concentration and temperature as in the nucleation induction time experiments. In the partitioning experiment, both the concentrations of aspirin and ethanol were measured, as there are three species in the bulk solution, namely aspirin, ethanol and water, all of which partition in the gel phase to a certain degree determined by their relative interaction with the PEGDA polymer matrix.
Composition of aspirin solution in the PEGDA gel phase were compared with the bulk phase. PEGDA gels sufficiently large for convenient handling were synthesized by UV polymerization, following the same formulation as the synthesis of PEGDA particles used in the crystallization study. The PEGDA gels were washed with ethanol and vacuum dried to remove unreacted species. The gel was then immersed in excessive 38 mg/ml aspirin solution in 38/62 ethanol/water (v/v) and allowed sufficient time to reach equilibrium swelling at 15° C. before taken out, pad dried, and put in excessive water. After 5 hours immersed in water, the concentrations of aspirin and ethanol in the aqueous phase were analyzed by UV-Vis spectroscopy and Gas Chromatography, respectively.
In FIG. 10: Partitioning of aspirin vs. acetaminophen in the PEGDA gel. Y axis represents the relative API concentration in the PEGDA, normalized by the bulk concentration. The aspirin partitioning experiment was conducted in 38 mg/ml aspirin solution in 38/62 ethanol/water (v/v) at 15° C. As for acetaminophen, 95 mg/ml acetaminophen solution in 38/62 ethanol/water (v/v) was used and the equilibration temperature was 8° C. In both cases, the experimental conditions were kept the same as used in the nucleation induction time study.
Quantification of polymer-solute interactions: The strength of intermolecular interactions between the PEGDA-co-AM polymer network and the molecule to crystallize was characterized with the solute equilibrium partition coefficient at the same condition as used in the crystallization study. Solute partition coefficient κ, defined as the ratio of solute mass fraction in solution confined in the gel to that in the bulk, is a relevant parameter because it informs the solute concentration in the gel at the crystallization condition, which is an important factor affecting nucleation. […] The PEGDA polymers are comprised of the PEG subchain and the acrylate crosslinkers.
Partition coefficient measurements: Partition coefficients of ASA in PEGDA-co-AM gels from its bulk solution were determined as follows. In brief, a series of gels with varying mesh sizes of approximately 5 mm in diameter and 0.5 mm in thickness were synthesized via UV polymerization following the same formula as used in the microgel synthesis. The residue solvent, porogen and monomer molecules were removed by extensive washing with solvent ethanol and subsequent vacuum drying. The dry gels were then immersed in excessive volume of 38 mg/ml ASA solution in 38/62 (v/v) ethanol/water at 15° C. for overnight.

[5] = Solubility of ASA and ACM; type: physicochemical; conditions: aqueous with cosolvent or surfactant or cyclodextrin; 38/62 (v/v) ethanol/water mixture at 25° C
[6] = Nucleation induction time of ASA / ACM with PEGDA or PEGDA-co-AM microgels in 38/62 ethanol/water; type: physicochemical; conditions: for average nucleation induction time τ: ACM S = 3.7; for Average nucleation induction time τ (stretched exponential fit) / τ1 (two-exponential fit) / τ2 (two-exponential fit): ACM
From the text: Nucleation kinetics of model compounds was investigated by measuring the nucleation induction time probability distribution. Nucleation induction time is generally time elapsed prior to the formation of a detectable amount of the new crystalline phase. It is a useful indicator of the surface nucleation activity because it can be dramatically shortened when the presence of an interface lowers the free energy barrier of nucleation. Due to the stochastic nature of nucleation events, a large number of experiments were performed to obtain the probability distribution of nucleation induction time. To obtain the average induction time τ, statistical analysis on the induction time data was conducted based on the understanding that nucleation follows a Poisson distribution. According to Poisson statistics, the probability for a nucleation event to occur beyond time t is P=exp(−t/τ), which implies that the fraction of vials without nucleation at time t exponentially decays as a function of time, where the scaling factor for time is the average induction time.
For determining the statistical analysis of aspirin nucleation induction time with PEGDA particles of various mesh sizes (particles denoted by Mn), 1.9 mL of 38 mg/ml ASA solution in 38/62 ethanol/water (v/v) with 15 μg/mL PEGDA particles was cooled at a rate of 5° C./min from 35° C. to 15° C. to achieve a supersaturation of 2.1. The solution was stirred at 700 rpm. The onset of nucleation was detected by an IR probe which measures the transmission signal through the solution. A total of 10 vials were cycled for 5-10 times to yield 50-100 nucleation induction time measurements for the statistical analysis.
The nucleation rate, J, is given by J=1/τV, where τ the average induction time (Table 1) and V the volume of solution. For this equation to be valid, the assumption is that the crystal growth rate is much faster than the nucleation rate, which is the case for ASA. […] Other crystallization conditions were kept the same.
[…] The solution was stirred at 700 rpm. The onset of nucleation was detected by an IR probe which measures the transmission signal through the solution. A total of 10 vials were cycled for 5-10 times to yield 50-100 nucleation induction time data for the statistical analysis.
Effect of polymer gels on nucleation induction time statistics: To evaluate the impact of polymer-solute interactions on nucleation kinetics, induction times of ASA and ACM were measured with microgels of a series average mesh sizes before and after chemical modification suspended in respective supersaturated solutions. […] For each system, a large number of experiments (50-100) were conducted to obtain the induction time probability distribution. The nucleation induction time generally follows the Poisson distribution. However, deviations can occur, as observed in this study, when there is more than one type of nucleation sites in a sample, giving rise to multiple Poisson processes with different characteristic time scales.
For samples with PEGMDA microgels, the nucleation induction time distributions reported in previous work can be faithfully described by stretched exponentials (Tables 5 and 6), P=exp[−(t/τ)^β], where P is the probability to observe no crystallization event within time t, τ the average induction time. The stretched exponential exponent β served as a measure for the spread of time scales characterizing the nucleation process, or the distribution of kinetic barriers arisen from the heterogeneity of the system. Such heterogeneity can be attributed to the heterogeneity of the polymer microstructure identified using SANS, which resulted from a distribution of nucleation sites arising from spatial variations in both the mesh size and chemical composition of the hydrogel at nanometer length scales. Note that β varies with the average mesh size of the microgel. […]

[7] = CBZ, Bulk ethanol solution, S=1.63, T=25° C
[8] = CBZ, PEGMDA microgels M 130 g/mol
[9] = CBZ, PEGMDA microgels M 200 g/mol
[10] = PEGDA-co-AM microgels M 130 g/mol
[11] = PEGDA-co-AM microgels M 200 g/mol
[12] = PEGDA-co-AM microgels M 400 g/mol

Structure (SMILES): NC(=O)N1c2ccccc2C=Cc2ccccc21 [CBZ, carbamazepine]
- energy separation between form III and II [1]: less than 0.7 kcal/mol
- Partition coefficient κ (solute mass fraction in gel solution / bulk) ([2]; PEGMDA microgels M 130 g/mol): 3.0 ± 0.4
- Partition coefficient κ (solute mass fraction in gel solution / bulk) ([2]; PEGMDA microgels M 200 g/mol): 2.7 ± 0.1
- Partition coefficient κ (solute mass fraction in gel solution / bulk) ([2]; PEGMDA microgels M 400 g/mol): 3.8 ± 0.2
- Partition coefficient κ (solute mass fraction in gel solution / bulk) ([2]; PEGMDA microgels M 575 g/mol): 3.8 ± 0.04
- Partition coefficient κ (solute mass fraction in gel solution / bulk) ([2]; PEGMDA microgels M 700 g/mol): 3.7 ± 0.1
- Polymorph [3, 7]: concomitant crystallization of Forms I and II; also recorded: II & I, occasionally
- average nucleation induction time τ [3, 7]: 427 ± 13 min
- Polymorph [3, 8]: II & I
- average nucleation induction time τ [3, 8]: 222 ± 5 min
- Polymorph [3, 9]: II & I
- average nucleation induction time τ [3, 9]: 174 ± 11 min
- average nucleation induction time τ ([3]; CBZ, PEGMDA microgels M 400 g/mol): 10.9 ± 0.3 min
- average nucleation induction time τ ([3]; CBZ, PEGMDA microgels M 575 g/mol): 33 ± 1 min
- average nucleation induction time τ ([3]; CBZ, PEGMDA microgels M 700 g/mol): 49 ± 1 min
- Polymorph crystallized ([3]; CBZ, PEGMDA microgels with M≧400 g/mol, ~250 trials): pure Form II
- optimum mesh size for CBZ nucleation ([3]; PEGMDA microgels): 1.1 nm

Structure (SMILES): CC(=O)Nc1ccc(O)cc1 [acetaminophen]
- acetaminophen concentration in PEGDA particles relative to bulk concentration ([4]; 95 mg/ml in 38/62 ethanol/water, 8° C, FIG. 10): approximately twice the bulk concentration
- increase in κ with modified gels ([4]; Mn=130 g/mol): 35%
- increase in κ with modified gels ([4]; Mn=700 g/mol): 14%
- solubility [5]: 90 mg/mL (≈ 595 mM)
- average nucleation induction time τ ([6]; Bulk (no particles), 38/62 ethanol/water): 6500 ± 1600 min
- average nucleation induction time τ ([6]; PEGDA microparticles Mn 130 g/mol): 920 ± 70 min
- average nucleation induction time τ ([6]; PEGDA microparticles Mn 200 g/mol): 540 ± 20 min
- average nucleation induction time τ ([6]; PEGDA microparticles Mn 400 g/mol): 1720 ± 150 min
- average nucleation induction time τ ([6]; PEGDA microparticles Mn 700 g/mol): 6500 ± 1600 min
- Average nucleation induction time τ (stretched exponential fit) ([6]; Bulk): 37000 min
- Average nucleation induction time τ (stretched exponential fit) ([6]; PEGDA microgels M 130 g/mol): 1600 min
- Average nucleation induction time τ (stretched exponential fit) ([6]; PEGDA microgels M 200 g/mol): 480 min
- Average nucleation induction time τ (stretched exponential fit) ([6]; PEGDA microgels M 400 g/mol): 5300 min
- Average nucleation induction time τ (stretched exponential fit) ([6]; PEGDA microgels M 700 g/mol): 37000 min
- τ1 (two-exponential fit) [6, 10]: 55 min
- τ2 (two-exponential fit) [6, 10]: 1360 min
- τ1 (two-exponential fit) [6, 11]: 88 min
- τ2 (two-exponential fit) [6, 11]: 12400 min
- τ1 (two-exponential fit) [6, 12]: 70 min
- τ2 (two-exponential fit) [6, 12]: 35000 min
- promotion of nucleation kinetics when AM co-monomer was introduced into the PEGDA matrix ([6]; PEGDA-co-AM vs PEGDA microgels): up to two orders of magnitude
- best enhancement in nucleation kinetics by addition of PEGDA particles ([6]; vs bulk, Table 2): about ten-fold
